EC50 and Cmax data for 17 molecules are collected here from US11236055B2 (Venenum Biodesign, LLC, priority 2016, dated 2022).

Data set [1] deals with T1, mouse TGR5 receptor (Mus musculus, UniProt Q80SS6).
T1 construct: expressed in transfected cells; host or cells: HEK293-EBNA (293 c18, ATCC CRL10852), Hygromycin B selection
T1 sequence (Q80SS6 1-329): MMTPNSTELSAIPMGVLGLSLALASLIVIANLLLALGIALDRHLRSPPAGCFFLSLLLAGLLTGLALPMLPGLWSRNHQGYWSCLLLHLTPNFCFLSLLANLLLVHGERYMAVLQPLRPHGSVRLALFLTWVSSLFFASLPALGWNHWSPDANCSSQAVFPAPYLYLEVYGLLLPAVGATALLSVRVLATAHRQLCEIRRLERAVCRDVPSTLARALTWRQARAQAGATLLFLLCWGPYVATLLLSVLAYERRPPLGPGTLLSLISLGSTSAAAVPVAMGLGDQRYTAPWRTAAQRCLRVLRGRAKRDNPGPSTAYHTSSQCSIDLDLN
As to the kind of experiment: Mouse TGR5 cAMP production assay (luminescent, DiscoveRx cAMP XS+). The following applies: HEK293-EBNA cells overexpressing mouse TGR5, luminescent cAMP XS+; coded A-D; read-out: Mouse TGR5 Lum. cAMP Activity (EC50). The class given is cell-based. The method in brief:
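HEK293-EBNA cells stably expressing mouse TGR5 were suspended in serum-free DMEM with 500 μM IBMX and preincubated 20 min with cAMP antibody. They were then exposed to half-log compound dilutions for 1 h at room temperature. cAMP measured by enzyme-fragment complementation luminescence after overnight incubation; EC50 derived.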

Data set [2] concerns the target T2, human TGR5 receptor (Homo sapiens, UniProt Q8TDU6).
T2 construct: host or cells: CHO-K1 (hTGR5-CHO cells)
T2 sequence (Q8TDU6 1-330): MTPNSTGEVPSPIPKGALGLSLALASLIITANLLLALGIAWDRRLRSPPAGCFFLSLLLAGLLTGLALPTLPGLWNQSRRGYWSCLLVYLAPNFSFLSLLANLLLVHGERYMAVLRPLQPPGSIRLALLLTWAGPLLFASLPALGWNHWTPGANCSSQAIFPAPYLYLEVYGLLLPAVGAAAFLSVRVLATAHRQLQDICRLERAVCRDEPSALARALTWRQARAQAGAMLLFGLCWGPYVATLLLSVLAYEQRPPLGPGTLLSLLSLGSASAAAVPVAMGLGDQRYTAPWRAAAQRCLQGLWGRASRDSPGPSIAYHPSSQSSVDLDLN
Kind of data set: Human TGR5 cAMP production assay. It is filed as cell-based. The following applies: human TGR5, luminescent cAMP assay; coded A-D; read-out: Human TGR5 Lum. cAMP Activity (EC50). In outline: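 CHO-K1 cells stably expressing human TGR5, with IBMX and cAMP antibody, were exposed to half-log serially diluted compound for 1 h at room temperature. cAMP measured by enzyme-fragment complementation luminescence (XS+ kit) after overnight incubation; EC50 values reported.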

Data set [3] is described as follows: Pharmacokinetic profile in mice. The class given is in vivo. The following applies: mouse; fasted male Hilltop mice, 10 mg/kg oral gavage, plasma, mean of three mice. Here is the method:
Pharmacokinetic Profile in Mice
In this series of studies, the pharmacokinetic profile characteristics of compounds of the present invention were evaluated. The plasma concentration levels of the compounds were monitored in the blood stream (i.e., plasma) after oral gavage using Cmax, and area under the curve (AUC).
8 week old male Hilltop mice were fasted overnight. Animals were randomized into groups (n=9) by body weight. Mice were dosed with 10 mg/kg compound (in 20% PEG400/80% 0.5% carboxymethylcellulose (medium viscosity)+0.25% Tween-80) at a volume of 10 mL/kg through oral gavage. Blood was collected via orbital bleeding at 0, 0.25, 0.5, 1, 2, and 4 h post-dose, with no one mouse having more than 3 blood draws. Blood was collected in EDTA coated tubes. Samples were stored at −20° C. until analysis.
Quantitation of compound levels in plasma was accomplished by LC-MS/MS analysis. Standard curve and quality control samples were prepared in male CD-1 mouse plasma containing EDTA K^2+ as an anticoagulant at final concentrations ranging from 500 to 0.1 ng/mL. The plasma samples, calibration curve standards, and quality control samples were prepared in an identical method in a 96-well deep plate (1 mL) with a quenching solution (1:1 mixed acetonitrile:methanol containing the internal standard Reserpine @ 400 ng/mL). Low volume samples were supplemented with CD-1 mouse plasma. The plate was mixed on multi-tube votex for 1 min and centrifuged at 4000 rpm for 30 min at 4° C. (Sorvall® Super T21) before LC-MS/MS analysis. LC conditions were developed and optimized based on each compound as needed. The outlet of the column was coupled to AB Sciex 4000 QTrap Mass Spectrometer (AB Sciex, Brugg Switzerland). Detection was carried out using multiple reaction monitoring mode with positive-ion detection focusing. The pharmacokinetic parameters were derived from the plasma-time data and calculated using the standard non-compartmental method with WinNonlin (Pharsight, Mountain View, Calif.) or PK Solver (Comp. Meth. Prog. Biomed. (2010), 99, 306-314).
Values reported are the mean plasma concentration of three mice.

Data set [4] concerns the target T1, mouse TGR5 receptor. As to the kind of experiment: Mouse TGR5 cAMP production assay (HTRF, Cisbio cAMP HiRange). The class given is cell-based. Conditions: HEK293-EBNA cells overexpressing mouse TGR5, HTRF cAMP HiRange; coded A-D. The method in brief:
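cAMP read by HTRF competition after 1 h room-temperature compound exposure of mouse TGR5-overexpressing HEK293-EBNA cells. Cells were suspended in serum-free DMEM containing 500 μM IBMX; compounds ran as 12-point half-log dilutions in duplicate; EC50 derived.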
On the technique in general: cAMP levels reflect the balance of adenylyl cyclase and phosphodiesterase activity.

In the case of `Cc1cncc(C)c1-c1cccc(C(C)(C)NS(=O)(=O)c2cccc(C(F)(F)F)c2)c1` [Compound 5AD, N-(2-(3-(3,5-dimethylpyridin-4-yl)phenyl)propan-2-yl)-3-(trifluoromethyl)benzenesulfonamide], the EC50 in data set [1] and in data set [2] was 1000 to 30000 nM throughout.

With `Cc1cnccc1-c1cccc([C@H](C)NS(=O)(=O)c2cccc(C(F)(F)F)c2)c1` [Compound 5AG, (S)-N-(1-(3-(3-methylpyridin-4-yl)phenyl)ethyl)-3-(trifluoromethyl)benzenesulfonamide], the EC50 in data set [1] was 100 to 999 nM; in data set [2], below 100 nM.

Take `Cc1cnccc1-c1cccc([C@@H](C)NS(=O)(=O)c2cccc(C(F)(F)F)c2)c1` [Compound 5AH, (R)-N-(1-(3-(3-methylpyridin-4-yl)phenyl)ethyl)-3-(trifluoromethyl)benzenesulfonamide]: the figures for the EC50 in data set [1] and in data set [2] were 100 to 999 nM and below 100 nM, respectively.

Regarding `Cc1cnccc1-c1cccc(C(C)(C)NS(=O)(=O)c2ccccc2C(F)(F)F)c1` [Compound 5AI, N-(2-(3-(3-methylpyridin-4-yl)phenyl)propan-2-yl)-2-(trifluoromethyl)benzenesulfonamide], the EC50 in data set [1] is 100 to 999 nM; in data set [2] it was below 100 nM.

As to `CNC(=O)C[C@H](NS(=O)(=O)c1ccccc1C(F)(F)F)c1cccc(-c2ccncc2C)c1` [Compound 5AZ, (S)-N-methyl-3-(3-(3-methylpyridin-4-yl)phenyl)-3-(2-(trifluoromethyl)phenylsulfonamido)propanamide], the highest concentration (Cmax) in data set [3] is 2330 ng/mL. For the same molecule, the EC50 in data set [2] and in data set [4] was 100 to 999 nM throughout.

Consider `COCCOc1cnccc1-c1cccc(C(C)(C)NS(=O)(=O)c2cccc(C(F)(F)F)c2)c1` [Compound 8, N-(2-(3-(3-(2-methoxyethoxy)pyridin-4-yl)phenyl)propan-2-yl)-3-(trifluoromethyl)benzenesulfonamide], for which the EC50 in data set [1] was 1000 to 30000 nM; in data set [2], 100 to 999 nM.

For `CC(C)Oc1cnccc1-c1cccc(C(C)(C)NS(=O)(=O)c2cccc(C(F)(F)F)c2)c1` [Compound 8AA, N-(2-(3-(3-isopropoxypyridin-4-yl)phenyl)propan-2-yl)-3-(trifluoromethyl)benzenesulfonamide], the EC50 in data set [1] and in data set [2] was 100 to 999 nM in each case.

Take `CCOc1cnccc1-c1cccc(C(C)(C)NS(=O)(=O)c2cccc(C(F)(F)F)c2)c1` [Compound 8AB, N-(2-(3-(3-ethoxypyridin-4-yl)phenyl)propan-2-yl)-3-(trifluoromethyl)benzenesulfonamide]: the EC50 in data set [1] is 100 to 999 nM; in data set [2], below 100 nM.

For `Cc1cnccc1-c1cccc(C(C)(C)N(CCCC(=O)NCCS(N)(=O)=O)S(=O)(=O)c2cccc(Cl)c2C)c1` [Compound 20AE, 4-(3-chloro-2-methyl-N-(2-(3-(3-methylpyridin-4-yl)phenyl)propan-2-yl)phenylsulfonamido)-N-(2-sulfamoylethyl)butanamide], the maximum concentration (Cmax) in data set [3] was 128 ng/mL. Besides, the EC50 in data set [2] and in data set [4] was below 100 nM in each case.

`Cc1cnccc1-c1cccc(C(C)(C)N(CCCC(=O)NCCS(=O)(=O)O)S(=O)(=O)c2cccc(Cl)c2C)c1` [Compound 20AG, 2-(4-(3-chloro-2-methyl-N-(2-(3-(3-methylpyridin-4-yl)phenyl)propan-2-yl)phenylsulfonamido)butanamido)ethanesulfonic acid]: in data set [3], the Cmax came to 1.4 ng/mL. For the same molecule, the concentration giving a half-maximal response (EC50) in data set [2] and in data set [4] was below 100 nM throughout.

Molecule `CCc1cnccc1-c1cccc([C@H](C)N(CCCCC(=O)NCCS(=O)(=O)O)S(=O)(=O)c2cccc(Cl)c2C)c1` [Compound 20AS, (S)-2-(5-(3-chloro-N-(1-(3-(3-ethylpyridin-4-yl)phenyl)ethyl)-2-methylphenylsulfonamido)pentanamido)ethanesulfonic acid] returned a Cmax in data set [3] of 2.3 ng/mL. Further, the EC50 in data set [2] and in data set [4] was below 100 nM in each case.

In data set [3], `Cc1cnccc1-c1cccc(C2(N(CCCC(=O)NCCS(=O)(=O)O)S(=O)(=O)c3cccc(Cl)c3C)COC2)c1` [Compound 20BN, 2-(4-(3-chloro-2-methyl-N-(3-(3-(3-methylpyridin-4-yl)phenyl)oxetan-3-yl)phenylsulfonamido)butanamido)ethanesulfonic acid] yielded a maximum concentration (Cmax) of 478 ng/mL. Moreover, the EC50 was below 100 nM in data set [2] and 100 to 999 nM in data set [4].

`Cc1cnccc1-c1cccc(C(C)(C)N(CCCC(=O)NCC(N)=O)S(=O)(=O)c2cccc(Cl)c2C)c1` [Compound 21AC, N-(2-amino-2-oxoethyl)-4-(3-chloro-2-methyl-N-(2-(3-(3-methylpyridin-4-yl)phenyl)propan-2-yl)phenylsulfonamido)butanamide] returned a Cmax in data set [3] of 269 ng/mL. Further, the EC50 in data set [2] and in data set [4] was below 100 nM in each case.

`Cc1cnccc1-c1cccc([C@H](C)N(CCCC(=O)NCCS(=O)(=O)O)S(=O)(=O)c2cccc(Cl)c2C)c1` [Compound 21AG, (S)-2-(4-(3-chloro-2-methyl-N-(1-(3-(3-methylpyridin-4-yl)phenyl)ethyl)phenylsulfonamido)butanamido)ethanesulfonic acid]: the Cmax in data set [3] came out at 14.3 ng/mL. In addition, the EC50 in data set [2] and in data set [4] was below 100 nM each time.

The molecule `Cc1cnccc1-c1cccc(C(C)(C)N(CCCN/C(=N\C#N)NCCC(=O)O)S(=O)(=O)c2cccc(Cl)c2C)c1` [Compound 25, (E)-3-(3-(3-((3-chloro-2-methyl-N-(2-(3-(3-methylpyridin-4-yl)phenyl)propan-2-yl)phenyl)sulfonamido)propyl)-2-cyanoguanidino)propanoic acid] yielded a Cmax in data set [3] of 3.1 ng/mL. The EC50 in data set [2] and in data set [4] was below 100 nM in each case.

In data set [3], `Cc1cnccc1-c1cccc(C(C)(C)N(CCCC(=O)NCC[N+](C)(C)C)S(=O)(=O)c2cccc(Cl)c2C)c1` [Compound 27AD, 2-(4-(3-chloro-2-methyl-N-(2-(3-(3-methylpyridin-4-yl)phenyl)propan-2-yl)phenylsulfonamido)butanamido)-N,N,N-trimethylethanaminium] displayed a Cmax of 25.4 ng/mL. For the same molecule, the EC50 is below 100 nM in data set [2] and 100 to 999 nM in data set [4].

Molecule `Cc1cnccc1-c1cccc(C(C)(C)N(CCCNC(=O)NCCS(N)(=O)=O)S(=O)(=O)c2cccc(Cl)c2C)c1` [Compound 29AB] displayed a Cmax in data set [3] of 109 ng/mL. For the same molecule, the EC50 in data set [2] and in data set [4] was below 100 nM throughout.

A word on the EC50: it is the concentration that produces a half-maximal response. The term Cmax denotes the highest concentration seen after dosing.
